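These data come from cells grown in 96-well plates and exposed to compound for 48 hours at five concentrations. Abbreviation: GI50, concentration required for 50% inhibition of growth.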 The source made the active and inactive calls. No stated cut-off is given here; in the data, active = GI50 up to about 1.1 µM and inactive = higher.
Experiments:
Assay in all cases: NCI anticancer screen, dose series, 48 h
SN12C = system: SN12C
NCI/ADR-RES = system: NCI/ADR-RES
SF-295 = system: SF-295
SF-539 = system: SF-539
MOLT-4 = system: MOLT-4
NCI-H460 = system: NCI-H460
SK-OV-3 = system: SK-OV-3
RPMI-8226 = system: RPMI-8226
EKVX = system: EKVX
COLO 205 = system: COLO 205
MDA-MB-435 = system: MDA-MB-435
HOP-92 = system: HOP-92
CAKI-1 = system: CAKI-1
CCRF-CEM = system: CCRF-CEM
LOX IMVI = system: LOX IMVI
IGROV-1 = system: IGROV-1
OVCAR-5 = system: OVCAR-5
KM12 = system: KM12
A549 = system: A549
SK-MEL-2 = system: SK-MEL-2
MCF7 = system: MCF7
NCI-H522 = system: NCI-H522
M14 = system: M14
SR = system: SR
OVCAR-3 = system: OVCAR-3
SNB-19 = system: SNB-19
OVCAR-4 = system: OVCAR-4
RXF 393 = system: RXF 393
K562 = system: K562
Hs-578T = system: Hs-578T
UACC-62 = system: UACC-62
HT-29 = system: HT-29
MDA-MB-231 = system: MDA-MB-231
A498 = system: A498
U-251 = system: U-251
HOP-62 = system: HOP-62
HL-60 = system: HL-60
T47D = system: T47D
ACHN = system: ACHN
HCT-15 = system: HCT-15
NCI-H226 = system: NCI-H226
DU-145 = system: DU-145
HCT-116 = system: HCT-116
Malme-3M = system: Malme-3M
UACC-257 = system: UACC-257
TK-10 = system: TK-10
SNB-75 = system: SNB-75
PC-3 = system: PC-3
SF-268 = system: SF-268
SK-MEL-5 = system: SK-MEL-5
MDA-N = system: MDA-N
SK-MEL-28 = system: SK-MEL-28
BT-549 = system: BT-549
SW-620 = system: SW-620
OVCAR-8 = system: OVCAR-8
HCC 2998 = system: HCC 2998
786-0 = system: 786-0
UO-31 = system: UO-31
NCI-H23 = system: NCI-H23
KM-20L2 = system: KM-20L2

With `Nc1cc(-c2ccc(Cl)cc2)nn1-c1nc2ccccc2nc1-c1ccccc1` the GI50 (SN12C) was 80.7 µM (inactive), the GI50 (NCI/ADR-RES) was > 100 µM (inactive) and the GI50 (SF-295) was > 100 µM (inactive). The GI50 (SF-539) was 95.9 µM (inactive), the GI50 (MOLT-4) was 8.02 µM (inactive) and the GI50 (NCI-H460) was > 100 µM (inactive). The GI50 (SK-OV-3) was > 100 µM (inactive), the GI50 (RPMI-8226) was 37.5 µM (inactive) and the GI50 (EKVX) was > 100 µM (inactive). The GI50 (COLO 205) was > 100 µM (inactive), the GI50 (MDA-MB-435) was > 100 µM (inactive) and the GI50 (HOP-92) was 56 µM (inactive). For the same molecule, the GI50 (CAKI-1) was > 100 µM (inactive), the GI50 (CCRF-CEM) was > 100 µM (inactive) and the GI50 (LOX IMVI) was > 100 µM (inactive). The GI50 (IGROV-1) was 38.3 µM (inactive), the GI50 (OVCAR-5) was > 100 µM (inactive) and the GI50 (KM12) was > 100 µM (inactive). The GI50 (A549) was > 100 µM (inactive), the GI50 (SK-MEL-2) was 59.7 µM (inactive) and the GI50 (MCF7) was > 100 µM (inactive). The GI50 (NCI-H522) was > 100 µM (inactive), the GI50 (M14) was > 100 µM (inactive) and the GI50 (SR) was 71.8 µM (inactive). The GI50 (OVCAR-3) was 65 µM (inactive), the GI50 (SNB-19) was 47.8 µM (inactive) and the GI50 (OVCAR-4) was 56.8 µM (inactive). The GI50 (RXF 393) was 35 µM (inactive), the GI50 (K562) was > 100 µM (inactive) and the GI50 (Hs-578T) was 70.5 µM (inactive). For the same molecule, the GI50 (UACC-62) was > 100 µM (inactive), the GI50 (HT-29) was 11.9 µM (inactive) and the GI50 (MDA-MB-231) was > 100 µM (inactive). The GI50 (A498) was > 100 µM (inactive), the GI50 (U-251) was 48.1 µM (inactive) and the GI50 (HOP-62) was 49 µM (inactive). For the same molecule, the GI50 (HL-60) was > 100 µM (inactive), the GI50 (T47D) was 13.3 µM (inactive) and the GI50 (ACHN) was 70.6 µM (inactive). The GI50 (HCT-15) was over 100 µM, the GI50 (NCI-H226) was > 100 µM (inactive) and the GI50 (DU-145) was > 100 µM (inactive). For the same molecule, the GI50 (HCT-116) was > 100 µM (inactive), the GI50 (Malme-3M) was 50.9 µM (inactive) and the GI50 (UACC-257) was > 100 µM (inactive). For the same molecule, the GI50 (TK-10) was 77.1 µM (inactive), the GI50 (SNB-75) was 27.6 µM (inactive) and the GI50 (PC-3) was 22.2 µM (inactive). The GI50 (SF-268) was > 100 µM (inactive), the GI50 (SK-MEL-5) was 92 µM (inactive) and the GI50 (MDA-N) was > 100 µM (inactive). For the same molecule, the GI50 (SK-MEL-28) was 79.4 µM (inactive), the GI50 (BT-549) was > 100 µM (inactive) and the GI50 (SW-620) was > 100 µM (inactive). The GI50 (OVCAR-8) was > 100 µM (inactive), the GI50 (HCC 2998) was > 100 µM (inactive) and the GI50 (786-0) was 39 µM (inactive).

With `CC[P+]1(c2ccccc2)[C@@H](C)CC[C@@H]1C` the GI50 (SN12C) was > 100 µM (inactive), the GI50 (NCI/ADR-RES) was > 100 µM (inactive) and the GI50 (SF-295) was > 100 µM (inactive). The GI50 (SF-539) was > 100 µM (inactive), the GI50 (MOLT-4) was > 100 µM (inactive) and the GI50 (NCI-H460) was > 100 µM (inactive). The GI50 (UO-31) was > 100 µM (inactive), the GI50 (SK-OV-3) was > 100 µM (inactive) and the GI50 (RPMI-8226) was > 100 µM (inactive). The GI50 (EKVX) was > 100 µM (inactive), the GI50 (COLO 205) was 85.1 µM (inactive) and the GI50 (NCI-H23) was > 100 µM (inactive). For the same molecule, the GI50 (MDA-MB-435) was > 100 µM (inactive), the GI50 (HOP-92) was 39.1 µM (inactive) and the GI50 (CAKI-1) was > 100 µM (inactive). For the same molecule, the GI50 (CCRF-CEM) was > 100 µM (inactive), the GI50 (LOX IMVI) was > 100 µM (inactive) and the GI50 (IGROV-1) was > 100 µM (inactive). The GI50 (OVCAR-5) was > 100 µM (inactive), the GI50 (KM12) was > 100 µM (inactive) and the GI50 (A549) was > 100 µM (inactive). The GI50 (SK-MEL-2) was > 100 µM (inactive), the GI50 (MCF7) was > 100 µM (inactive) and the GI50 (NCI-H522) was > 100 µM (inactive). For the same molecule, the GI50 (M14) was > 100 µM (inactive), the GI50 (SR) was > 100 µM (inactive) and the GI50 (OVCAR-3) was 84.1 µM (inactive). For the same molecule, the GI50 (SNB-19) was > 100 µM (inactive), the GI50 (OVCAR-4) was > 100 µM (inactive) and the GI50 (RXF 393) was > 100 µM (inactive). For the same molecule, the GI50 (K562) was 96.2 µM (inactive), the GI50 (Hs-578T) was > 100 µM (inactive) and the GI50 (UACC-62) was > 100 µM (inactive). For the same molecule, the GI50 (HT-29) was > 100 µM (inactive), the GI50 (MDA-MB-231) was > 100 µM (inactive) and the GI50 (A498) was > 100 µM (inactive). The GI50 (U-251) was 40.5 µM (inactive), the GI50 (HOP-62) was > 100 µM (inactive) and the GI50 (HL-60) was > 100 µM (inactive). For the same molecule, the GI50 (T47D) was > 100 µM (inactive), the GI50 (ACHN) was > 100 µM (inactive) and the GI50 (HCT-15) was over 100 µM. The GI50 (NCI-H226) was > 100 µM (inactive), the GI50 (DU-145) was > 100 µM (inactive) and the GI50 (HCT-116) was > 100 µM (inactive). The GI50 (Malme-3M) was 97.1 µM (inactive), the GI50 (UACC-257) was > 100 µM (inactive) and the GI50 (TK-10) was > 100 µM (inactive). For the same molecule, the GI50 (SNB-75) was > 100 µM (inactive), the GI50 (PC-3) was 61.9 µM (inactive) and the GI50 (SF-268) was > 100 µM (inactive). The GI50 (SK-MEL-5) was 65.2 µM (inactive), the GI50 (MDA-N) was > 100 µM (inactive) and the GI50 (SK-MEL-28) was > 100 µM (inactive). The GI50 (BT-549) was > 100 µM (inactive), the GI50 (SW-620) was > 100 µM (inactive) and the GI50 (OVCAR-8) was > 100 µM (inactive). The GI50 (HCC 2998) was > 100 µM (inactive) and the GI50 (786-0) was > 100 µM (inactive).

`O=C(N/N=C/c1cc(Br)cc(Br)c1O)c1ccccc1O` was tested, and the GI50 (SF-295) was 0.9 µM (active), the GI50 (SF-539) was 0.61 µM (active) and the GI50 (MOLT-4) was 0.575 µM (active). The GI50 (NCI-H460) was 0.64 µM (active), the GI50 (UO-31) was 0.695 µM (active) and the GI50 (SK-OV-3) was 1.06 µM (active). The GI50 (EKVX) was 1.18 µM (inactive), the GI50 (COLO 205) was 3.34 µM (inactive) and the GI50 (NCI-H23) was 0.52 µM (active). For the same molecule, the GI50 (HOP-92) was 1.2 µM (inactive), the GI50 (CAKI-1) was 0.8 µM (active) and the GI50 (LOX IMVI) was 0.399 µM (active). For the same molecule, the GI50 (IGROV-1) was 0.867 µM (active), the GI50 (OVCAR-5) was 0.723 µM (active) and the GI50 (KM12) was 1.43 µM (inactive). The GI50 (A549) was 1.1 µM (active), the GI50 (SK-MEL-2) was 0.433 µM (active) and the GI50 (KM-20L2) was 2 µM (inactive). The GI50 (NCI-H522) was 0.311 µM (active), the GI50 (M14) was 0.687 µM (active) and the GI50 (SR) was 0.258 µM (active). For the same molecule, the GI50 (OVCAR-3) was 0.273 µM (active), the GI50 (SNB-19) was 0.912 µM (active) and the GI50 (OVCAR-4) was 0.267 µM (active). For the same molecule, the GI50 (RXF 393) was 0.929 µM (active), the GI50 (UACC-62) was 0.368 µM (active) and the GI50 (HT-29) was 3.38 µM (inactive). For the same molecule, the GI50 (U-251) was 0.399 µM (active), the GI50 (HOP-62) was 0.832 µM (active) and the GI50 (HL-60) was 0.15 µM (active). For the same molecule, the GI50 (ACHN) was 0.436 µM (active), the GI50 (HCT-15) was 0.422 µM and the GI50 (NCI-H226) was 0.32 µM (active). For the same molecule, the GI50 (HCT-116) was 1.82 µM (inactive), the GI50 (Malme-3M) was 1.56 µM (inactive) and the GI50 (UACC-257) was 2.26 µM (inactive). The GI50 (TK-10) was 0.944 µM (active), the GI50 (SNB-75) was 3.66 µM (inactive) and the GI50 (SF-268) was 0.469 µM (active). For the same molecule, the GI50 (SK-MEL-5) was 1.07 µM (active), the GI50 (SK-MEL-28) was 0.708 µM (active) and the GI50 (SW-620) was 0.773 µM (active). For the same molecule, the GI50 (OVCAR-8) was 0.463 µM (active) and the GI50 (HCC 2998) was 1.03 µM (active).
